Laboratory results as given in PubChem BioAssay (NCI).
Where “and” joins values, the source holds several entries; their conditions need not be identical. Identical values can stand only once.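 96-well plates; 48 h exposure; 5 concentrations. Endpoints by linear interpolation between flanking doses. Not reached: highest tested concentration assigned. Abbreviation: GI50, concentration required for 50% inhibition of growth. TGI is the concentration that stops growth completely.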 *1 amine or outer side, *2 acyl side, *3 side chain or, on linkers, in order; H or OH if unused. Where a SMILES comes first, the peptide text is derived from it. Bridges are numbered along the chain shown (N, C = ends). [ ]: non-standard residue; d: D form. The star is where a group is joined. Phe(3,5-F2) = N[C@@H](Cc1cc(F)cc(F)c1)C(=O)O; Pro(4R-Me) = C[C@H]1CN[C@H](C(=O)O)C1; aThr = C[C@H](O)[C@H](N)C(=O)O; Pip = O=C(O)[C@@H]1CCCCN1; X10 = Fc1cc(C2CC2)ccc1N*; CO = O=C([*:1])[*:2]

How the values were obtained:
Experiment in all cases: DTP human tumour cell line panel, 48 h
A549 NSCLC = system: A549 NSCLC
KM20L2 colon = system: KM20L2 colon
M19-MEL melanoma = system: M19-MEL melanoma
NCI-H23 lung = system: NCI-H23 lung
OVCAR-5 ovarian = system: OVCAR-5 ovarian
OVCAR-8 ovarian = system: OVCAR-8 ovarian
SNB-75 CNS = system: SNB-75 CNS
U251 CNS = system: U251 CNS
DMS 114 small cell lung = system: DMS 114 small cell lung
NCI-H226 lung = system: NCI-H226 lung

| Structure (SMILES) | TGI (A549 NSCLC) | TGI (KM20L2 colon) | TGI (M19-MEL melanoma) | TGI (NCI-H23 lung) | TGI (OVCAR-5 ovarian) | TGI (OVCAR-8 ovarian) | TGI (SNB-75 CNS) | TGI (U251 CNS) | GI50 (DMS 114 small cell lung) [µM] | TGI (DMS 114 small cell lung) | GI50 (KM20L2 colon) [µM] | GI50 (M19-MEL melanoma) [µM] | GI50 (OVCAR-5 ovarian) [µM] | GI50 (A549 NSCLC) [µM] | GI50 (NCI-H23 lung) [µM] | GI50 (OVCAR-8 ovarian) [µM] | GI50 (SNB-75 CNS) [µM] | GI50 (U251 CNS) [µM] | TGI (NCI-H226 lung) [µM] | GI50 (NCI-H226 lung) [µM] |
| --- | --- | --- | --- | --- | --- | --- | --- | --- | --- | --- | --- | --- | --- | --- | --- | --- | --- | --- | --- | --- |
| Nc1ccccc1S(=O)(=O)N(CC(=O)O)c1ccccc1 | > 100 µM | > 100 µM | > 100 µM | > 100 µM | > 100 µM | > 100 µM | > 100 µM | > 100 µM |  |  |  |  |  |  |  |  |  |  |  |  |
| CCCCCCCCCCCCCC(=O)OC(/C=C/C(C)C)C(O)C(O)C(OC)C(=O)NC1CCCCN(C)C1=O (configuration not stated) | 5.06 µM and > 49 µM | 7.64 µM and > 49 µM | 7.5 µM and > 49 µM | 6.48 µM and > 49 µM | 10.8 µM and > 49 µM | 8.44 µM and > 49 µM | 8.6 µM and > 49 µM | 6.43 µM and > 49 µM | > 49 | 5.44 µM and > 49 µM | > 49 | > 49 | > 49 |  |  |  |  |  |  |  |
| CCC[CH2][Sn]([CH2]CCC)([S]c1cccc2cccnc12)[S]c1cccc2cccnc12 | 1.34 µM | 0.474 µM | 0.587 µM | 0.422 µM |  | 1.16 µM | 0.926 µM | 0.409 µM | 0.129 | 0.319 µM | 0.215 | 0.216 |  | 0.348 | 0.161 | 0.283 | 0.234 | 0.197 |  |  |
| Cc1c(C(=O)CC(=O)C(=O)Nc2ccccc2C(F)(F)F)[n+](=O)c2ccccc2n1[O-] | 75.6 µM | 92.3 µM |  | 44.3 µM | 65.9 µM | 61.3 µM |  | 49 µM |  | 25.2 µM |  |  |  |  |  |  |  |  | > 100 |  |
| OCc1cc2ccccc2c2c3c(ccc12)OCO3 | 126 µM |  |  | 221 µM | 207 µM | 199 µM | 64 µM | 141 µM |  |  |  |  | 40.9 | 30.3 | 34.1 | 29.2 | 18.4 | 28.6 | 163 | 23.7 |
| Cc1ccnc2c1ccc1c(C)ccnc12 | 11.4 µM |  |  | 20.2 µM | 19 µM | 14.1 µM | 14.6 µM | 11.5 µM |  |  |  |  | 0.75 | 0.386 | 0.741 | 0.397 | 0.84 | 0.419 | 8.21 | 0.412 |
| COc1ccc2c(c1)sc1nc(-c3ccccc3)c(-c3cccc4ccccc34)n12 | > 100 µM |  |  | > 100 µM | > 100 µM | > 100 µM | > 100 µM | > 100 µM |  |  |  |  | 2.07 | 0.816 | 1.21 | 0.771 | 0.386 | 0.447 | 5.28 | 0.604 |
| C[C@@H]1C[C@H]2C(=O)O[C@@H](C)[C@H](NC(=O)[C@H](Cc3cc(F)cc(F)c3)NC(=O)Nc3ccc(C4CC4)cc3F)C(=O)N3CCC[C@H]3C(=O)N3CCCC[C@H]3C(=O)N[C@@H](C)C(=O)N2C1 ({X10-CO}-[Phe(3,5-F2)][aThr]P[Pip]A[Pro(4R-Me)]; ester 2-C) | > 100 µM |  |  | 35.3 µM | 3.39 µM | > 100 µM | 49.9 µM | > 46 µM |  |  |  |  | 0.0575 | 0.0507 | 0.0522 | 0.0383 | 0.0485 | 0.0479 | 4.35 | 0.0524 |
| NS(=O)(=O)OC[C@@H]1C[C@@H](n2ccc3c(NC4CCc5ccccc54)ncnc32)C[C@@H]1O (some centres not stated) | 47.7 µM |  |  | 46.1 µM | 96.9 µM | 36.7 µM | > 100 µM | 36.9 µM |  |  |  |  | 16.4 | 0.797 | 1.34 | 0.823 | 20.8 | 0.559 |  | 0.362 |
| COC([CH2][Hg][n]1cnc2c1c(=O)n(C)c(=O)n2C)CN1C(=O)c2ccccc2S1(=O)=O (configuration not stated) | > 100 µM |  |  | > 100 µM | > 100 µM | > 100 µM | > 100 µM | > 100 µM |  |  |  |  | > 100 | > 100 | > 100 | > 100 | > 100 | > 100 | > 100 | > 100 |
| Fc1[nH]nc2ccc([C@@H]3Nc4ccc5[nH]ncc5c4[C@H]4C5CCC(C5)[C@@H]34)cc12 (some centres not stated) | 12.1 µM |  |  | 15.9 µM | 14.6 µM | 16.4 µM | 3.93 µM | 13.5 µM |  |  |  |  | 3.06 | 1.03 | 2.8 | 2.46 | 0.503 | 1.02 | 25.9 | 3.54 |
| COc1cc(/C=N\NC(=O)CN2CCN(c3cc4c(cc3F)c(=O)c(C(=O)N/N=C/c3cc(OC)c(OC)c(OC)c3)cn4C3CC3)CC2)cc(OC)c1OC | > 100 µM |  |  | 0.605 µM | > 62.4 µM | > 88.5 µM | 2.12 µM | > 100 µM |  |  |  |  | 0.489 | > 24.6 | 0.237 | 0.577 | 0.53 | 0.328 | 1.2 | 0.34 |
| COc1ccccc1N1C(=O)C2c3[nH]c4ccccc4c3C3CCC(C(C)(C)C)CC3C2C1=O (configuration not stated) | > 100 µM | > 100 µM | > 100 µM | > 100 µM |  | > 100 µM | > 100 µM | > 100 µM |  | > 100 µM |  |  |  |  |  |  |  |  | > 100 |  |
| CNC(=S)OCCC(C)CCCC(C)C (configuration not stated) | 32.5 µM | 30 µM | 34.9 µM | 36.6 µM | 23.9 µM | 31.5 µM | 40.6 µM | 30.1 µM |  |  |  |  |  |  |  |  |  |  |  |  |
| Cc1cc(N(CCC#N)CCC#N)ccc1N=Nc1ccc(S(N)(=O)=O)cc1 | > 100 µM |  |  | > 100 µM | > 100 µM | > 100 µM | > 100 µM | > 100 µM |  | > 100 µM |  |  |  |  |  |  |  |  | > 100 |  |
| Cc1ccc(Cl)c2c(N=Nc3ccccc3[N+](=O)[O-])c(O)[nH]c12 | > 100 µM |  |  | > 100 µM | > 100 µM | > 100 µM | > 100 µM | > 100 µM |  |  |  |  |  |  |  |  |  |  | > 100 |  |
| Nc1c(C(=O)c2cccc(CCS(N)(=O)=O)c2)cnn1-c1ccc(F)cc1 | > 25 µM |  |  | > 25 µM | > 25 µM | > 25 µM | > 25 µM | > 25 µM |  |  |  |  | > 25 | > 25 | > 25 | > 25 | > 25 | > 25 | > 25 | > 19.7 |
